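Method: 48-hour compound exposure of cells in 96-well plates, five concentrations, linear interpolation of endpoints. The concentration for 50% growth inhibition is given as GI50.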 Activity calls are given as the source filed them. No stated cut-off is given here; in the data, active = GI50 up to about 1.1 µM and inactive = higher.
What was measured:
Experiment in all cases: growth of human tumour cells (NCI), 48 h
786-0 = tested on: 786-0
A498 = tested on: A498
A549 = tested on: A549
ACHN = tested on: ACHN
BT-549 = tested on: BT-549
CAKI-1 = tested on: CAKI-1
CCRF-CEM = tested on: CCRF-CEM
COLO 205 = tested on: COLO 205
DU-145 = tested on: DU-145
EKVX = tested on: EKVX
HCT-116 = tested on: HCT-116
HCT-15 = tested on: HCT-15
HL-60 = tested on: HL-60
HOP-62 = tested on: HOP-62
HOP-92 = tested on: HOP-92
HT-29 = tested on: HT-29
Hs-578T = tested on: Hs-578T
IGROV-1 = tested on: IGROV-1
K562 = tested on: K562
KM12 = tested on: KM12
M14 = tested on: M14
MCF7 = tested on: MCF7
MDA-MB-231 = tested on: MDA-MB-231
MDA-MB-435 = tested on: MDA-MB-435
MDA-N = tested on: MDA-N
MOLT-4 = tested on: MOLT-4
Malme-3M = tested on: Malme-3M
NCI-H226 = tested on: NCI-H226
NCI-H23 = tested on: NCI-H23
NCI-H460 = tested on: NCI-H460
NCI-H522 = tested on: NCI-H522
NCI/ADR-RES = tested on: NCI/ADR-RES
OVCAR-3 = tested on: OVCAR-3
OVCAR-4 = tested on: OVCAR-4
OVCAR-5 = tested on: OVCAR-5
OVCAR-8 = tested on: OVCAR-8
PC-3 = tested on: PC-3
RPMI-8226 = tested on: RPMI-8226
RXF 393 = tested on: RXF 393
SF-268 = tested on: SF-268
SF-295 = tested on: SF-295
SF-539 = tested on: SF-539
SK-MEL-28 = tested on: SK-MEL-28
SK-MEL-2 = tested on: SK-MEL-2
SK-MEL-5 = tested on: SK-MEL-5
SK-OV-3 = tested on: SK-OV-3
SN12C = tested on: SN12C
SNB-19 = tested on: SNB-19
SNB-75 = tested on: SNB-75
SR = tested on: SR
SW-620 = tested on: SW-620
T47D = tested on: T47D
U-251 = tested on: U-251
UACC-257 = tested on: UACC-257
UACC-62 = tested on: UACC-62
UO-31 = tested on: UO-31
HCC 2998 = tested on: HCC 2998
LOX IMVI = tested on: LOX IMVI
TK-10 = tested on: TK-10

Measured: GI50

COc1cc(C(c2cccc3ccccc23)N2C(=O)CCC2C(=O)O)cc(OC)c1OC (stereo not drawn)
inactive: 786-0 > 100 µM | A498 > 100 µM | A549 > 100 µM | ACHN > 100 µM | BT-549 > 100 µM | CAKI-1 > 100 µM | CCRF-CEM > 100 µM | COLO 205 > 100 µM | DU-145 > 100 µM | EKVX > 100 µM | HCT-116 > 100 µM | HL-60 > 100 µM | HOP-62 > 100 µM | HOP-92 > 100 µM | HT-29 > 100 µM | Hs-578T > 100 µM | IGROV-1 > 100 µM | K562 > 100 µM | KM12 > 100 µM | M14 > 100 µM | MCF7 > 100 µM | MDA-MB-231 > 100 µM | MDA-MB-435 > 100 µM | MDA-N > 100 µM | MOLT-4 > 100 µM | Malme-3M > 100 µM | NCI-H226 > 100 µM | NCI-H23 > 100 µM | NCI-H460 > 100 µM | NCI-H522 > 100 µM | NCI/ADR-RES > 100 µM | OVCAR-3 > 100 µM | OVCAR-4 > 100 µM | OVCAR-5 > 100 µM | OVCAR-8 > 100 µM | PC-3 > 100 µM | RPMI-8226 > 100 µM | RXF 393 > 100 µM | SF-268 > 100 µM | SF-295 > 100 µM | SF-539 > 100 µM | SK-MEL-28 > 100 µM | SK-MEL-2 > 100 µM | SK-MEL-5 > 100 µM | SK-OV-3 > 100 µM | SN12C > 100 µM | SNB-19 > 100 µM | SNB-75 > 100 µM | SR > 100 µM | SW-620 > 100 µM | T47D > 100 µM | U-251 > 100 µM | UACC-257 > 100 µM | UACC-62 > 100 µM | UO-31 > 100 µM
> 100 µM: HCT-15

O=c1ccn(COC(COCc2ccccc2)COCc2ccccc2)c(=O)[nH]1
inactive: A498 > 100 µM | BT-549 > 100 µM | CAKI-1 > 100 µM | CCRF-CEM > 100 µM | COLO 205 > 100 µM | DU-145 > 100 µM | HCC 2998 > 100 µM | HCT-116 > 100 µM | HL-60 85.7 µM | HOP-62 > 100 µM | HOP-92 > 100 µM | HT-29 > 100 µM | Hs-578T > 100 µM | IGROV-1 > 100 µM | K562 > 100 µM | KM12 > 100 µM | LOX IMVI > 100 µM | M14 > 100 µM | MCF7 > 100 µM | MDA-MB-231 55.3 µM | MDA-MB-435 > 100 µM | MDA-N > 100 µM | MOLT-4 24.2 µM | Malme-3M > 100 µM | NCI-H226 > 100 µM | NCI-H23 > 100 µM | NCI-H460 > 100 µM | NCI/ADR-RES > 100 µM | OVCAR-3 > 100 µM | OVCAR-4 > 100 µM | OVCAR-5 > 100 µM | OVCAR-8 > 100 µM | PC-3 77.6 µM | RPMI-8226 > 100 µM | RXF 393 > 100 µM | SF-295 > 100 µM | SK-MEL-28 > 100 µM | SK-MEL-2 > 100 µM | SK-MEL-5 76.4 µM | SK-OV-3 > 100 µM | SN12C > 100 µM | SNB-19 > 100 µM | SNB-75 > 100 µM | SR 62.8 µM | SW-620 > 100 µM | T47D 64.1 µM | TK-10 > 100 µM | U-251 > 100 µM | UACC-257 > 100 µM | UACC-62 86.9 µM | UO-31 51.4 µM
> 100 µM: HCT-15

— ChEMBL document CHEMBL1201862, “PubChem BioAssay data set” (2004)
